According to patent publication US20160038565A1, “Methods of Mitigating Side Effects of Radiation Exposure and Chemotherapy” (Gencia Corporation, priority 2012, published 2016):

Assays:
[1] = tested on: orthotopic MiaPaca-2 xenografts; assay: Gemcitabine toxicity in orthotopic model of pancreatic cancer; type: in vivo, BALB/c nude mouse; conditions: gemcitabine 40 mg/kg every 3 days
Description: MiaPaCa-2 tumor cells was maintained in vitro as monolayer culture in DMEM medium supplemented with 10% fetal bovine serum, 2.5% horse serum, 100 U/ml penicillin and 100 μg/m1 streptomycin, and 2 mM L-glutamine at 37° C. in an atmosphere of 5% CO2 in air. The tumor cells were routinely subcultured twice weekly by trypsin-EDTA treatment. Cells in an exponential growth phase will be harvested and counted for tumor inoculation. Before orthotopic implantation, 5×10^6 MiaPaca-2 cells in 50 μl PBS mixed with 50 μl Matrigel were inoculated subcutaneously at the right flank of each BALB/c nude mouse. Upon subcutaneous tumor size reaching about 500 mm^3, tumors were collected for orthotopic implantation.
For orthotopic MiaPaca-2 xenografts, mice were anesthetized by intraperitoneal injection of pentobarbital sodium (50 mg/kg) before tumor inoculation. The abdominal skin was sterilized and laparotomy was performed to expose the pancreas. Each mouse was inoculated with a subcutaneous MiaPaca-2 tumor fragment (2-3 mm in diameter) in the subcapsular region of the pancreas for tumor development. The abdominal wall was closed using No. 6 suture and then sterilized with povidone iodine solution. The day of surgery was denoted as Day 0 (DO). […] The body weight of each mouse was measured on treatment days 1, 5, 8, 12, 15, 19 and 22. […]

[2] = Doxorubicin toxicity in naive mice (body weight, food intake, survival); type: in vivo, C57/BL6 mice; conditions: doxorubicin 25 mg/kg
Description: Two of four groups of five naive C57/BL6 mice were treated with doxorubicin (dox) at dose of 25 mg/kg, whereas the other two groups were left untreated. To assess PTD−TFAM's ability to ameliorate the toxic effects of Doxorubicin one group each of the dox-treated and untreated animals received PTD−TFAM at a dose of 0.3mg/kg on the same day as they were treated with Doxorubicin and every four days for two weeks thereafter (indicated with arrows in FIG. 1). Concurrently mice in the last two groups (one treated and one untreated with Doxorubicin) received vehicle alone (100 μl of 50% sorbitol, 2×PBS). To assess toxicity of the Doxorubicin treatment, mice were weighed once daily.
Each treatment group was housed together in cage separate from the other treatment group(s). The animals in each case share a food hopper. Food intake was evaluated on a group-by-group basis by weighing each group's food once daily. The difference in food weight between two days provides a rough estimate of the group's food intake during the period between two measurements (i.e, a day).

Compound | mice dead by day 22 [1] [%] | deaths / survival ([2]; PTD-TFAM 0.3 mg/kg every four days, five mice per group) | food consumed by the group combined during days 6-8 ([2]; per cage of five mice)
Nc1ccn([C@@H]2O[C@H](CO)[C@@H](O)C2(F)F)c(=O)n1 [gemcitabine] | 50 | – | –
COc1cccc2c1C(=O)c1c(O)c3c(c(O)c1C2=O)C[C@@](O)(C(=O)CO)C[C@@H]3O[C@H]1C[C@H](N)[C@H](O)[C@H](C)O1 [dox, doxorubicin] | – | One of the mice in dox only treatment group began to gain weight, but died on day 14 | less than two grams
